{"source": "patent US20090133153A1", "about": "“Polypeptide participating in pyridoxine biosynthesis, polynucleotide encoding the polypetide and those uses” (Genomine, Inc, priority 2004, published 2009)", "key": {"[1]": {"tested_on": "T2 Arabidopsis thaliana transformant (anti-sense AtPDX4)", "experiment": "Phenotype recovery of T2 anti-sense AtPDX4 transformant by vitamin B6's", "format": "in vivo", "conditions": "0.5 mg/L, 7 days", "method": "Arabidopsis thaliana was cultivated in a soil-filled pot or cultivated in a petri dish by using MS medium (Murashige and Skoog salts, Sigma, U.S.A.) containing 2% sucrose (pH 5.7) and 0.8% agar. In this study, vitamin B6 group (including pyridoxine) was excluded from the vitamin mixture used in the MS medium. The culture pot was incubated at 22° C. in a growth chamber and controlled by 16/8 hours of light and dark cycle.\nAbove all, in order to select T2 Arabidopsis transformant, MS medium containing 12 mg/L PPT (phosphinothricine, Duchefa, Netherlands) was prepared and T2 seeds were treated at a low temperature (4° C.) for 3 days. 120 of T2 seeds were cultivated on petri dishes containing MS media with or without 0.5 mg/L of pyridoxine-HCl (Sigma, USA), pyridoxamine-2HCl (Sigma, USA), pyridoxal-HCl (Sigma, USA) or pyridoxal-5-phosphate (Sigma, USA)."}, "[2]": {"tested_on": "T2 Arabidopsis thaliana transformant (anti-sense AtPDX4)", "experiment": "Pyridoxine auxotrophy test: T2 seeds of anti-sense AtPDX4 transformant on MS medium with pyridoxine", "format": "in vivo", "conditions": "2.5 mg/L pyridoxine-HCl; for seeds germinated to grow: MS medium with 12 mg/L PPT", "method": "Arabidopsis thaliana was cultivated in a soil-filled pot or cultivated in a petri dish by using MS medium (Murashige and Skoog salts, Sigma, U.S.A.) containing 2% sucrose (pH 5.7) and 0.8% agar. In this study, vitamin B6 group (including pyridoxine) was excluded from the vitamin mixture used in the MS medium. The culture pot was incubated at 22° C. in a growth chamber and controlled by 16/8 hours of light and dark cycle. Meanwhile, in order to investigate whether the plant transformant becomes pyridoxine auxotroph mutant or not after transformed with anti-sense construct against AtPDX4 gene, T2 seed of Arabidopsis thaliana transformant was collected from T1 transformant and cultivated to estimate the reaction by adding pyridoxine. Above all, MS medium containing 12 mg/L PPT (phosphinothricine, Duchefa, Netherlands) was prepared and T2 seeds were treated at a low temperature (4° C.) for 3 days. 120 of T2 seeds were cultivated respectively on 2 (total 4) petri dishes of MS media (30 seeds per petri dish) with or without 2.5 mg/L of pyridoxine-HCl (Sigma, USA), so as to select T2 Arabidopsis thaliana transformant."}}}
{"smiles": "Cc1ncc(CO)c(CO)c1O", "note": "[pyridoxine, 2-methyl-3-hydroxy-4,5-di(hydroxymethyl)pyridine]", "values": [{"measurement": "phenotype of plant transformant", "setting": "[1]", "value": "not to change in the phenotype remarkably"}, {"measurement": "seeds germinated to grow", "setting": "[1]; MS medium with 12 mg/L PPT", "value": 26, "unit": "seeds"}, {"measurement": "phenotype compared with wild type Arabidopsis thaliana", "setting": "[2]; 7 days", "value": "not to change in the phenotype remarkably"}, {"measurement": "phenotype compared with wild type Arabidopsis", "setting": "[2]; 19 days", "value": "not to change in the phenotype such as growth retardation"}, {"measurement": "seeds germinated to grow", "setting": "[2]; 7 days", "value": 22, "unit": "seeds"}, {"measurement": "seeds germinated to grow", "setting": "[2]; 19 days", "value": 24, "unit": "seeds"}]}
